Reference: PubChem BioAssay AID248 (DTP/NCI, 2004)
Values joined by “and” are separate entries in the source; they are usually repeats but may differ in a detail not shown here. Equal entries are not always repeated. Inconclusive results and toxic doses are left out. Rule as the data show it: active = T/C of 150% or more; inactive = T/C below 125%.

Test system: L1210 leukemia ip in BDF1 mice, survival T/C
Assay: NCI In Vivo Anticancer Drug Screen. Data for tumor model L1210 Leukemia (intraperitoneal) in B6D2F1 (BDF1) mice
Conditions: endpoint: mean survival time, higher = longer survival
Procedure, shortened: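 Tumor cells were implanted, animals were treated, and survival was followed. The result divides the treated measurement by the vehicle-control measurement.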

[1] = dose: 100.0 mg/kg/injection, schedule: Q01DX009 (ip), vehicle: Klucel (hydroxypropylcellulose) (HPC)
[2] = dose: 100.0 mg/kg/injection, schedule: Q04DX003 (ip), vehicle: Klucel (hydroxypropylcellulose) (HPC)
[3] = dose: 200.0 mg/kg/injection, schedule: Q01DX009 (ip), vehicle: Klucel (hydroxypropylcellulose) (HPC)
[4] = dose: 200.0 mg/kg/injection, schedule: Q04DX003 (ip), vehicle: Klucel (hydroxypropylcellulose) (HPC)
[5] = dose: 400.0 mg/kg/injection, schedule: Q01DX009 (ip), vehicle: Klucel (hydroxypropylcellulose) (HPC)
[6] = dose: 400.0 mg/kg/injection, schedule: Q04DX003 (ip), vehicle: Klucel (hydroxypropylcellulose) (HPC)

Measured: T/C

CCCOc1ccc([N+](=O)[O-])cc1N
inactive: dose: 100.0 mg/kg/injection, schedule: Q01DX001 (ip), vehicle: carboxymethylcellulose (CMC) 96 % of control | dose: 200.0 mg/kg/injection, schedule: Q01DX001 (ip), vehicle: carboxymethylcellulose (CMC) 100 % of control | dose: 400.0 mg/kg/injection, schedule: Q01DX001 (ip), vehicle: carboxymethylcellulose (CMC) 94 % of control

CC(=O)Nc1ccc(N=Nc2ccccc2)cc1F
inactive: [1] 94 % of control | [2] 98 % of control | [3] 97 % of control | [4] 94 % of control | [5] 97 % of control | [6] 91 % of control

O=C(/C=C/c1ccccc1)NC(=S)NC1CCCCC1
inactive: dose: 50.0 mg/kg/injection, schedule: Q01DX009 (ip), vehicle: carboxymethylcellulose (CMC) 101 % of control and 102 % of control | dose: 50.0 mg/kg/injection, schedule: Q04DX003 (ip), vehicle: carboxymethylcellulose (CMC) 103 % of control | dose: 100.0 mg/kg/injection, schedule: Q01DX009 (ip), vehicle: carboxymethylcellulose (CMC) 97 % of control and 90 % of control | dose: 100.0 mg/kg/injection, schedule: Q04DX002 (ip), vehicle: carboxymethylcellulose (CMC) 100 % of control and 106 % of control | dose: 100.0 mg/kg/injection, schedule: Q04DX003 (ip), vehicle: carboxymethylcellulose (CMC) 96 % of control | dose: 200.0 mg/kg/injection, schedule: Q01DX009 (ip), vehicle: carboxymethylcellulose (CMC) 93 % of control and 91 % of control | dose: 200.0 mg/kg/injection, schedule: Q04DX002 (ip), vehicle: carboxymethylcellulose (CMC) 103 % of control and 91 % of control | dose: 200.0 mg/kg/injection, schedule: Q04DX003 (ip), vehicle: carboxymethylcellulose (CMC) 96 % of control | dose: 400.0 mg/kg/injection, schedule: Q04DX002 (ip), vehicle: carboxymethylcellulose (CMC) 87 % of control

CSc1ccc(NC(=O)Nc2cccc(O)c2)cc1
inactive: [1] 101 % of control | [2] 101 % of control | [3] 103 % of control | [4] 106 % of control | [5] 101 % of control | [6] 98 % of control

Cc1no[n+]([O-])c1C(=O)N(C)C
inactive: dose: 25.0 mg/kg/injection, schedule: Q04DX002 (ip), vehicle: Klucel (hydroxypropylcellulose) (HPC) 95 % of control | dose: 50.0 mg/kg/injection, schedule: Q04DX002 (ip), vehicle: Klucel (hydroxypropylcellulose) (HPC) 95 % of control | dose: 100.0 mg/kg/injection, schedule: Q04DX002 (ip), vehicle: Klucel (hydroxypropylcellulose) (HPC) 95 % of control

O=[N+]([O-])c1ccc(C=C2C=c3ccccc3=C2)cc1
inactive: dose: 12.5 mg/kg/injection, schedule: Q04DX003 (ip), vehicle: Klucel (hydroxypropylcellulose) (HPC) 94 % of control | dose: 25.0 mg/kg/injection, schedule: Q04DX003 (ip), vehicle: Klucel (hydroxypropylcellulose) (HPC) 96 % of control | dose: 50.0 mg/kg/injection, schedule: Q04DX003 (ip), vehicle: Klucel (hydroxypropylcellulose) (HPC) 97 % of control
